Experimental data from patent US5500410A, “Substituted alkylamide derivatives of teicoplanin” (Gruppo Lepetit S.p.A., priority 1989, dated 1996).

How the values were obtained:
Test in all cases: In vitro MIC, two-fold dilution in microtiter
Type in all cases: cell-based
[1] = test system: Staphylococcus epidermidis ATCC 12228; conditions: 18-24 h at 37° C., inoculum about 10^4 CFU/ml
Description: (§1) Broth cultures are diluted enough so that the final inecuium is about 10^4 colony forming units/ml (CFU/ml).

[2] = test system: Proteus vulgaris X19H ATCC 881; conditions: 18-24 h at 37° C., inoculum about 10^4 CFU/ml
Description: as §1

[3] = test system: Streptococcus pyogenes C 203; conditions: 18-24 h at 37° C., inoculum about 10^4 CFU/ml
Description: as §1

[4] = test system: Streptococcus pneumoniae UC 41; conditions: 18-24 h at 37° C., inoculum about 10^4 CFU/ml
Description: as §1

[5] = test system: Escherichia coli SKF 12140; conditions: 18-24 h at 37° C., inoculum about 10^4 CFU/ml
Description: as §1

[6] = test system: Pseudomonas aeruginosa ATCC 10145; conditions: for MIC Pseudomonas aeruginosa ATCC 10145: 18-24 h at 37° C., inoculum about 10^4 CFU/ml
Description: as §1

[7] = test system: Streptococcus faecalis ATCC 7080; conditions: 18-24 h at 37° C., inoculum about 10^4 CFU/ml
Description: as §1

[8] = test system: Staphylococcus aureus TOUR; conditions: 18-24 h at 37° C., inoculum about 10^4 CFU/ml
Description: as §1

[9] = test system: Staphylococcus haemolyticus L 602; conditions: 18-24 h at 37° C., inoculum about 10^4 CFU/ml
Description: as §1

CC(=O)N[C@H]1[C@H](OC2c3ccc(c(Cl)c3)Oc3cc4cc(c3O)Oc3ccc(cc3Cl)CC3NC(=O)C(N)c5ccc(O)c(c5)Oc5cc(O)cc(c5)C(NC3=O)C(=O)NC4C(=O)NC3C(=O)NC2C(=O)NC(C(=O)NCCCNCCCCNCCCN)c2cc(O)cc(O)c2-c2cc3ccc2O)O[C@H](CO)[C@@H](O)[C@@H]1O (stereo partly shown) [Compound 44]
MIC Staphylococcus epidermidis ATCC 12228 [1]: 0.06 microgram/ml | MIC Proteus vulgaris X19H ATCC 881 [2]: 128 microgram/ml | MIC Streptococcus pyogenes C 203 [3]: 0.06 microgram/ml | MIC Streptococcus pneumoniae UC 41 [4]: 0.25 microgram/ml | MIC Escherichia coli SKF 12140 [5]: 4 microgram/ml | MIC Pseudomonas aeruginosa ATCC 10145 [6]: 16 microgram/ml | MIC Streptococcus faecalis ATCC 7080 [7]: 0.25 microgram/ml | MIC Staphylococcus aureus TOUR [8]: 0.12 microgram/ml | MIC Staphylococcus haemolyticus L 602 [9]: 0.06 microgram/ml

CN(C)CCCN(CCCN)CCCNC(=O)C1NC(=O)C2NC(=O)C(NC(=O)C3NC(=O)C4NC(=O)C(Cc5ccc(c(Cl)c5)Oc5cc3cc(c5O)Oc3ccc(cc3Cl)C2O)NC(=O)C(N)c2ccc(O)c(c2)Oc2cc(O)cc4c2)c2ccc(O)c(c2)-c2c(O)cc(O)cc21 (stereo not shown) [Compound 51]
MIC Staphylococcus epidermidis ATCC 12228 [1]: 0.06 microgram/ml | MIC Proteus vulgaris X19H ATCC 881 [2]: 128 microgram/ml | MIC Streptococcus pyogenes C 203 [3]: 0.06 microgram/ml | MIC Streptococcus pneumoniae UC 41 [4]: 0.12 microgram/ml | MIC Escherichia coli SKF 12140 [5]: 8 microgram/ml | MIC Pseudomonas aeruginosa ATCC 10145 [6]: 32 microgram/ml | MIC Streptococcus faecalis ATCC 7080 [7]: 0.25 microgram/ml | MIC Staphylococcus aureus TOUR [8]: 0.12 microgram/ml | MIC Staphylococcus haemolyticus L 602 [9]: 0.12 microgram/ml

CCN(CC)CCN(CCCN)CCCNC(=O)C1NC(=O)C2NC(=O)C(NC(=O)C3NC(=O)C4NC(=O)C(Cc5ccc(c(Cl)c5)Oc5cc3cc(c5O)Oc3ccc(cc3Cl)C2O)NC(=O)C(N)c2ccc(O)c(c2)Oc2cc(O)cc4c2)c2ccc(O)c(c2)-c2c(O)cc(O)cc21 (stereo not shown) [Compound 52]
MIC Staphylococcus epidermidis ATCC 12228 [1]: 0.03 microgram/ml | MIC Proteus vulgaris X19H ATCC 881 [2]: > 128 microgram/ml | MIC Streptococcus pyogenes C 203 [3]: 0.12 microgram/ml | MIC Streptococcus pneumoniae UC 41 [4]: 0.12 microgram/ml | MIC Escherichia coli SKF 12140 [5]: 32 microgram/ml | MIC Pseudomonas aeruginosa ATCC 10145 [6]: 128 microgram/ml | MIC Streptococcus faecalis ATCC 7080 [7]: 0.12 microgram/ml | MIC Staphylococcus aureus TOUR [8]: 0.12 microgram/ml | MIC Staphylococcus haemolyticus L 602 [9]: 0.12 microgram/ml

CN(C)CCCN1CCN(C(=O)C2NC(=O)C3NC(=O)C(NC(=O)C4NC(=O)C5NC(=O)C(Cc6ccc(c(Cl)c6)Oc6cc4cc(c6O)Oc4ccc(cc4Cl)C3O)NC(=O)C(N)c3ccc(O)c(c3)Oc3cc(O)cc5c3)c3ccc(O)c(c3)-c3c(O)cc(O)cc32)CC1 (stereo not shown) [Compound 53]
MIC Staphylococcus epidermidis ATCC 12228 [1]: 0.06 microgram/ml | MIC Proteus vulgaris X19H ATCC 881 [2]: 128 microgram/ml | MIC Streptococcus pyogenes C 203 [3]: 0.06 microgram/ml | MIC Streptococcus pneumoniae UC 41 [4]: 0.12 microgram/ml | MIC Escherichia coli SKF 12140 [5]: 8 microgram/ml | MIC Pseudomonas aeruginosa ATCC 10145 [6]: 32 microgram/ml | MIC Streptococcus faecalis ATCC 7080 [7]: 0.12 microgram/ml | MIC Staphylococcus aureus TOUR [8]: 0.06 microgram/ml | MIC Staphylococcus haemolyticus L 602 [9]: 0.06 microgram/ml

NCCCNCCCCCCCCCNCCCNC(=O)C1NC(=O)C2NC(=O)C(NC(=O)C3NC(=O)C4NC(=O)C(Cc5ccc(c(Cl)c5)Oc5cc3cc(c5O)Oc3ccc(cc3Cl)C2O)NC(=O)C(N)c2ccc(O)c(c2)Oc2cc(O)cc4c2)c2ccc(O)c(c2)-c2c(O)cc(O)cc21 (stereo not shown) [Compound 54]
MIC Staphylococcus epidermidis ATCC 12228 [1]: 0.12 microgram/ml | MIC Proteus vulgaris X19H ATCC 881 [2]: > 128 microgram/ml | MIC Streptococcus pyogenes C 203 [3]: 0.03 microgram/ml | MIC Streptococcus pneumoniae UC 41 [4]: 0.12 microgram/ml | MIC Escherichia coli SKF 12140 [5]: > 128 microgram/ml | MIC Pseudomonas aeruginosa ATCC 10145 [6]: 128 microgram/ml | MIC Streptococcus faecalis ATCC 7080 [7]: 2 microgram/ml | MIC Staphylococcus aureus TOUR [8]: 0.5 microgram/ml | MIC Staphylococcus haemolyticus L 602 [9]: 2 microgram/ml

NCCCNCCCCCCCCCCNCCCNC(=O)C1NC(=O)C2NC(=O)C(NC(=O)C3NC(=O)C4NC(=O)C(Cc5ccc(c(Cl)c5)Oc5cc3cc(c5O)Oc3ccc(cc3Cl)C2O)NC(=O)C(N)c2ccc(O)c(c2)Oc2cc(O)cc4c2)c2ccc(O)c(c2)-c2c(O)cc(O)cc21 (stereo not shown) [Compound 55]
MIC Staphylococcus epidermidis ATCC 12228 [1]: 0.12 microgram/ml | MIC Proteus vulgaris X19H ATCC 881 [2]: > 128 microgram/ml | MIC Streptococcus pyogenes C 203 [3]: 0.12 microgram/ml | MIC Streptococcus pneumoniae UC 41 [4]: 0.12 microgram/ml | MIC Escherichia coli SKF 12140 [5]: > 128 microgram/ml | MIC Pseudomonas aeruginosa ATCC 10145 [6]: > 128 microgram/ml | MIC Streptococcus faecalis ATCC 7080 [7]: 1 microgram/ml | MIC Staphylococcus aureus TOUR [8]: 1 microgram/ml | MIC Staphylococcus haemolyticus L 602 [9]: 1 microgram/ml

teicoplanin [reference compound]
MIC against Pseudomonas aeruginosa (comparison compounds) ([6]; strain not specified ("the same microorganism")): ≥ 32 microgram/ml
